Here are results for 1 compound from patent US10562912B2 (C&C Research Laboratories, priority 2013, dated 2020).

Type in all cases: cell-based
Assay [1] has as its system MDA-MB-468. As to the kind of experiment: Cell growth inhibition assay, breast cancer cell line MDA-MB-468. The settings on record: Homo sapiens, MDA-MB-468 breast cancer cell line. How it is done:
(§1) The inhibitory effects of the compounds of the present invention against the growth of cancer cells were evaluated as shown below. The cancer cell lines including stomach cancer cell line (AGS), breast cancer cell lines (MDA-MB-231, MDA-MB-468, and BT-549), prostate cancer cell lines (LNCaP and DU-145), colon cancer cell line (HCT116), ovarian cancer cell line (SW626), liver cancer cell line (Hep3B), kidney cancer cell line (ACHN), lung cancer cell line (NCI-H23) and blood cancer cell lines (HEL92.1.7 and U266) were cultured under the protocol provided by each supplier. A medium supplemented with 10 ng/mL of IL-6 was used for LNCaP, a prostate cancer cell line, when treated with a drug. Each type of cells to be used in experiments were sub-cultured in a 96-well plate by counting the exact number of cells using Tali™ Image-based Cytometer (Life Technologies). In a 96-well plate, AGS, HCT116, and DU-145 were employed with 3,000 cells/well; NCI-H23, SW626, Hep3B, ACHN, BT-549, MDA-MB-231, HEL92.1.7, and U266 were employed with 5,000 cells/well; and LNCaP and MDA-MB-468 were employed with 10,000 cells/well. The cells were treated with the compounds listed in Examples which were diluted in various concentrations. Upon completion of the compounds treatment, AGS, HCT116, SW626, DU145, NCI-H23, Hep3B, ACHN, BT-549, LNCaP, HEL92.1.7, and U266 cells were cultured at 37° C. under 5% CO2 for from 72 to 96 hours, and MDA-MB-231 and MDA-MB-468 cells were cultured at 37° C. in air for from 72 to 96 hours. Subsequently, the cells were observed under microscope and drug precipitation and particular findings were investigated and recorded. And then, the 96-well plate was placed at room temperature for 30 minutes, added with 20 μL/well of CellTiter-Glo solution (Cat No. G7573, Promega) and shaken for 10 minutes, followed by being subjected to the measurement using PHERAstar™ microplate reader (BMG LABTECH) according to the supplier's general luminometer protocol. Wells where only culture liquid added without cell plating were used as a negative control, whereas wells where culture liquid containing 0.1% DMSO instead of the compounds listed in Examples were used as a positive control.

Assay [2] relates to MDA-MB-361. As to the kind of experiment: Cell growth inhibition assay, cell line MDA-MB-361. The note with it: Homo sapiens, MDA-MB-361 cells.
Assay [3] concerns HEL92.1.7. As to the kind of experiment: Cell growth inhibition assay, blood cancer cell line HEL92.1.7. The note with it: Homo sapiens, HEL 92.1.7, HEL92.1.7 blood cancer cell line. In a few lines: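 Cells were seeded at 3,000/well (HCT116, DU-145) or 5,000/well (SW626 and the others) and exposed to serial compound dilutions for 72 to 96 h at 37 °C under 5% CO2. Viability was read as CellTiter-Glo luminescence against 0.1% DMSO and cell-free wells.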

For assay [4], the system named is HCT116. Briefly: Cell growth inhibition assay, colon cancer cell line HCT116. The settings on record: Homo sapiens, HCT-116 colon cancer cell line. How it is done: as §1, with “Wells where only culture liquid added without cell plating were used as a negative control, whereas wells where culture liquid containing 0.1% DMSO instead of the compounds listed in Examples were used as a positive control.” left out

Assay [5] has as its system LNCaP. Briefly: Cell growth inhibition assay, prostate cancer cell line LNCaP (medium with 10 ng/mL IL-6). The settings on record: Homo sapiens, medium supplemented with 10 ng/mL of IL-6, 10,000 cells/well.
The subject of assay [6] is Raji. Briefly: Cell growth inhibition assay, cell line Raji. The note with it: Homo sapiens, Raji cells.
Assay [7] concerns the target T1, STAT3 (Homo sapiens, UniProt P40763).
T1 construct: plasmid pSTAT3-TA-luc), which contains a stably operating STAT3 promoter; endogenous in cells
Briefly: STAT3 reporter gene assay (luciferase), LNCaP stable cell line (pSTAT3-TA-luc), IL-6 stimulation. An outline of the steps:
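Cytotoxicity was run on a duplicate plate with CellTiter-Glo, while the other plate gave luciferase read-outs from lysed LNCaP pSTAT3-TA-luc reporter cells. Cells were treated with graded compound concentrations plus IL-6 (10 ng/mL final) for 24–48 h in 3% DCC-FBS medium. Unstimulated and stimulated wells served as negative and positive controls.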
Background: A reporter such as luciferase makes a cellular process visible.

The test system of assay [8] is IM-9. Briefly: Cell growth inhibition assay, cell line IM-9. The note with it: Homo sapiens, IM-9 cells.
Assay [9] concerns SW626. As to the kind of experiment: Cell growth inhibition assay, ovarian cancer cell line SW626. The note with it: Homo sapiens. As for the experimental part: as §1, with “Wells where only culture liquid added without cell plating were used as a negative control, whereas wells where culture liquid containing 0.1% DMSO instead of the compounds listed in Examples were used as a positive control.” left out

For assay [10], the system named is SW1417. As to the kind of experiment: Cell growth inhibition assay, cell line SW1417. The note with it: Homo sapiens, SW1417 cells.
The subject of assay [11] is ACHN. Briefly: Cell growth inhibition assay, kidney cancer cell line ACHN. The note with it: Homo sapiens. How it is done:
as §1, with “Wells where only culture liquid added without cell plating were used as a negative control, whereas wells where culture liquid containing 0.1% DMSO instead of the compounds listed in Examples were used as a positive control.” left out

Assay [12] deals with NCI-H1650. Briefly: Cell growth inhibition assay, cell line NCI-H1650. The note with it: Homo sapiens, NCI-H1650 cells.
Assay [13] deals with BT-549. As to the kind of experiment: Cell growth inhibition assay, breast cancer cell line BT-549. The settings on record: Homo sapiens, BT-549 breast cancer cell line. How it is done: as §1
In assay [14] the test system is DU-145. Briefly: Cell growth inhibition assay, prostate cancer cell line DU-145. The settings on record: Homo sapiens, DU-145 prostate cancer cell line. An outline of the steps: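 Seed DU-145/HCT116 3,000 cells/well, SW626 5,000 cells/well; add compound dilution series; incubate 72–96 h, 37° C., 5% CO2; microscope check for precipitate; CellTiter-Glo, luminescence. Blank = no cells; vehicle = 0.1% DMSO.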

The subject of assay [15] is NCI-H661. As to the kind of experiment: Cell growth inhibition assay, cell line NCI-H661. The settings on record: Homo sapiens, NCI-H661 cells.
For assay [16], the system named is Hep3B. As to the kind of experiment: Cell growth inhibition assay, liver cancer cell line Hep3B. The note with it: Homo sapiens. How it is done: as §1
Assay [17] relates to NCI-H508. Briefly: Cell growth inhibition assay, cell line NCI-H508. The settings on record: Homo sapiens, NCI-H508 cells.
Assay [18] relates to NCI-H23. As to the kind of experiment: Cell growth inhibition assay, lung cancer cell line NCI-H23. The settings on record: Homo sapiens. As for the experimental part:
as §1, with “Wells where only culture liquid added without cell plating were used as a negative control, whereas wells where culture liquid containing 0.1% DMSO instead of the compounds listed in Examples were used as a positive control.” left out

The subject of assay [19] is HCC1500. Briefly: Cell growth inhibition assay, cell line HCC1500. The note with it: HCC1500 cells.
The test system of assay [20] is MDA-MB-231. As to the kind of experiment: Cell growth inhibition assay, breast cancer cell line MDA-MB-231. The settings on record: Homo sapiens; MDA-MB-231 breast cancer cell line, 5,000 cells/well.
For assay [21], the system named is C-33A. Briefly: Cell growth inhibition assay, cell line C-33A. The note with it: Homo sapiens, C-33A cells.

T1 sequence (P40763 whole entry): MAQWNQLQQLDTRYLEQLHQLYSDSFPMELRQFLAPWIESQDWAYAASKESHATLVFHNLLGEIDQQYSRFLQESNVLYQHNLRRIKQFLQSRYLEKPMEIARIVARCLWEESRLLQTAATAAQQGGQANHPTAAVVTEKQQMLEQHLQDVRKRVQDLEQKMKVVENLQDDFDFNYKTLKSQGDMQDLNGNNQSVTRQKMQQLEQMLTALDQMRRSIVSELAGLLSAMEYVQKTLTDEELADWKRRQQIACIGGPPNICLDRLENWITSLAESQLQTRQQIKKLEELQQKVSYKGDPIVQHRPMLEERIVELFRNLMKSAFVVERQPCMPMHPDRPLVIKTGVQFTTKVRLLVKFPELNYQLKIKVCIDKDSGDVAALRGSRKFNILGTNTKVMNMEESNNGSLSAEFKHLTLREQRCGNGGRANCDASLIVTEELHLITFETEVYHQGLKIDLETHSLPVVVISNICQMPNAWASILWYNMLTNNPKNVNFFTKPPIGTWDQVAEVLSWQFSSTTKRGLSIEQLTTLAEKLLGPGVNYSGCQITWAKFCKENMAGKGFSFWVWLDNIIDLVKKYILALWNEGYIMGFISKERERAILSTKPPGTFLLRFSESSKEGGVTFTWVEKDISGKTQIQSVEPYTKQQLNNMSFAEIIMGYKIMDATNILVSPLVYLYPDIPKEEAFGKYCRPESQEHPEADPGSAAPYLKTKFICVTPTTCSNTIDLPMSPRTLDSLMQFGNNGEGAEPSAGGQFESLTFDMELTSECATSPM

Turning to `CN(c1ccc2cc(C(=O)Nc3cccc(-c4ccccc4C(F)(F)F)c3)[nH]c2c1)S(C)(=O)=O` [Example 346, 6-(N-methylmethylsulfonamido)-N-(2′-(trifluoromethyl)-[1,1′-biphenyl]-3-yl)-1H-indole-2-carboxamide], the half-maximal inhibitory concentration (IC50) in [1] is 0.14 µM; in assay [2], 0.28 µM; in assay [3] it was 1.3 µM; in assay [4] it was 1.5 µM; in assay [5], 0.463 µM; in assay [6], 0.57 µM. In addition, the IC50 is 0.2 µM in assay [7]; 0.51 µM in assay [8]; 0.29 µM in assay [9]; 0.35 µM in assay [10]; 0.37 µM in assay [11]; 0.62 µM in [12]. For the same compound, the 50% inhibitory concentration (IC50) in assay [13] worked out at 1 µM; in [14], 0.37 µM; in [15], 0.09 µM; in [16], 2.2 µM; in assay [17] it was 0.22 µM; in assay [18], 1.7 µM. Also, the results for the concentration for half-maximal inhibition (IC50) in [19], in [20] and in assay [21] were 1.03 µM, 0.18 µM and 0.3 µM, respectively.

What is called IC50 is the concentration at which inhibition is half-maximal. Read a low IC50 as inhibition by little substance.
